Each structure is given as a SMILES string.

For the first assay, the system named is 8XTBD luciferase reporter (YAP) in HEK293T cells. Kind of assay: YAP Reporter Assay. It counts as cell-based. To be noted: Homo sapiens, HEK-293T; HEK293T cells stably transfected with 8XTBD luciferase reporter and pRLTK; 24-hr incubation; top concentration 3 μM; read-out: Firefly Luciferase IC50. On the technique in general: In a reporter assay the amount or activity of a reporter protein is the signal.
As for `CCOC(=O)Cc1nnc(-c2ccccc2Nc2ccc(C(F)(F)F)cc2)o1` [Compound 1, ethyl 2-(5-(2-((4-(trifluoromethyl)phenyl)amino)phenyl)-1,3,4-oxadiazol-2-yl) acetate], the IC50 lay in the range of 100 to 1000 nM. The same measure, in the same setting: the result for `OCCc1nnc(-c2ccccc2Nc2ccc(C(F)(F)F)cc2)o1` [Compound 2, 2-(5-(2-((4-(trifluoromethyl)phenyl)amino)phenyl)-1,3,4-oxadiazol-2-yl)ethan-1-ol] reads less than 100 nM; that for `CCOC(=O)c1nnc(-c2ccccc2Nc2ccc(C(F)(F)F)cc2)o1` [Compound 3, ethyl 5-(2-((4-(trifluoromethyl)phenyl)amino)phenyl)-1,3,4-oxadiazole-2-carboxylate], less than 100 nM; that for `Nc1nnc(-c2ccccc2Nc2ccc(C(F)(F)F)cc2)o1` [Compound 4, 5-(2-((4-(trifluoromethyl)phenyl)amino)phenyl)-1,3,4-oxadiazol-2-amine], 100 to 1000 nM. For `OCc1nnc(-c2ccccc2Nc2ccc(C(F)(F)F)cc2)o1` [Compound 5, (5-(2-((4-(trifluoromethyl)phenyl)amino)phenyl)-1,3,4-oxadiazol-2-yl)methanol], the 50% inhibitory concentration (IC50) is less than 100 nM. Turning to `CN(C)c1nnc(-c2ccccc2Nc2ccc(C(F)(F)F)cc2)o1` [Compound 6, N,N-dimethyl-5-(2-((4-(trifluoromethyl)phenyl)amino)phenyl)-1,3,4-oxadiazol-2-amine], the IC50 was 1000 to 5000 nM. In the case of `COC(=O)c1nnc(-c2ccccc2Nc2ccc(C(F)(F)F)cc2)o1` [Compound 8, methyl 5-(2-((4-(trifluoromethyl)phenyl)amino)phenyl)-1,3,4-oxadiazole-2-carboxylate], the IC50 was 100 to 1000 nM.

As to `CCOC(=O)CNc1nnc(-c2ccccc2Nc2ccc(C(F)(F)F)cc2)o1` [Compound 9, ethyl (5-(2-((4-(trifluoromethyl)phenyl)amino)phenyl)-1,3,4-oxadiazol-2-yl)glycinate], the IC50 was in the range of 1000 to 5000 nM.

As for `OCCNc1nnc(-c2ccccc2Nc2ccc(C(F)(F)F)cc2)o1` [Compound 10, 2-((5-(2-((4-(trifluoromethyl)phenyl)amino)phenyl)-1,3,4-oxadiazol-2-yl)amino)ethan-1-ol], the IC50 is 100 to 1000 nM. Turning to `CCOC(=O)CN(C)c1nnc(-c2ccccc2Nc2ccc(C(F)(F)F)cc2)o1` [Compound 11, ethyl N-methyl-N-(5-(2-((4-(trifluoromethyl)phenyl)amino)phenyl)-1,3,4-oxadiazol-2-yl)glycinate], the IC50 lay within 100 to 1000 nM. `CNc1nnc(-c2ccccc2Nc2ccc(C(F)(F)F)cc2)o1` [Compound 12, N-methyl-5-(2-((4-(trifluoromethyl)phenyl)amino)phenyl)-1,3,4-oxadiazol-2-amine]: the IC50 was 100 to 1000 nM. Consider `O=C1NCC(c2nnc(-c3ccccc3Nc3ccc(C(F)(F)F)cc3)o2)O1` (stereo not drawn) [Compound 13, 5-(5-(2-((4-(trifluoromethyl)phenyl)amino)phenyl)-1,3,4-oxadiazol-2-yl)oxazolidin-2-one], for which the IC50 is 100 to 1000 nM. As to `O=C(NO)c1nnc(-c2ccccc2Nc2ccc(C(F)(F)F)cc2)o1` [Compound 14, N-hydroxy-5-(2-((4-(trifluoromethyl)phenyl)amino)phenyl)-1,3,4-oxadiazole-2-carboxamide], the IC50 is less than 100 nM. In the case of `NC(=O)c1nnc(-c2ccccc2Nc2ccc(C(F)(F)F)cc2)o1` [Compound 15, 5-(2-((4-(trifluoromethyl)phenyl)amino)phenyl)-1,3,4-oxadiazole-2-carboxamide], the IC50 was less than 100 nM. For `Cc1ccc(S(=O)(=O)N2C(=O)OCC2c2nnc(-c3ccccc3Nc3ccc(C(F)(F)F)cc3)o2)cc1` (stereo not drawn) [Compound 16, 3-tosyl-4-(5-(2-((4-(trifluoromethyl)phenyl)amino)phenyl)-1,3,4-oxadiazol-2-yl)oxazolidin-2-one], the IC50 fell in the range of 100 to 1000 nM. Regarding `O=C1NC(c2nnc(-c3ccccc3Nc3ccc(C(F)(F)F)cc3)o2)CO1` (stereo not drawn) [Compound 17, 4-(5-(2-((4-(trifluoromethyl)phenyl)amino)phenyl)-1,3,4-oxadiazol-2-yl)oxazolidin-2-one], the IC50 was less than 100 nM. Still for that read-out and setting: in the case of `CN(CCO)c1nnc(-c2ccccc2Nc2ccc(C(F)(F)F)cc2)o1` [Compound 19, 2-(methyl(5-(2-((4-(trifluoromethyl)phenyl)amino)phenyl)-1,3,4-oxadiazol-2-yl)amino)ethan-1-ol] it was 100 to 1000 nM; in that of `FC(F)(F)c1ccc(Nc2ccccc2-c2nnco2)cc1` [Compound 20, 2-(1,3,4-oxadiazol-2-yl)-N-[4-(trifluoromethyl)phenyl]aniline], 100 to 1000 nM.

For `N#Cc1nnc(-c2ccccc2Nc2ccc(C(F)(F)F)cc2)o1` [Compound 22, 5-[2-[4-(trifluoromethyl)anilino]phenyl]-1,3,4-oxadiazole-2-carbonitrile], the IC50 was less than 100 nM.

Consider `NC(=O)CNc1nnc(-c2ccccc2Nc2ccc(C(F)(F)F)cc2)o1` [Compound 24, 2-((5-(2-((4-(trifluoromethyl)phenyl)amino)phenyl)-1,3,4-oxadiazol-2-yl)amino)acetamide], for which the IC50 was 100 to 1000 nM. Take `OCC(O)c1nnc(-c2ccccc2Nc2ccc(C(F)(F)F)cc2)o1` (stereo not drawn) [Compound 25, 1-[5-[2-[4-(trifluoromethyl)anilino]phenyl]-1,3,4-oxadiazol-2-yl]ethane-1,2-diol]: the IC50 is less than 100 nM. Same read-out and setting: the result for `CC(C)(C)OC(=O)N1C(=O)OCC1c1nnc(-c2ccccc2Nc2ccc(C(F)(F)F)cc2)o1` (stereo not drawn) [Compound 26] reads less than 100 nM; that for `NCc1nnc(-c2ccccc2Nc2ccc(C(F)(F)F)cc2)o1` [Compound 28, 2-[5-(aminomethyl)-1,3,4-oxadiazol-2-yl]-N-[4-(trifluoromethyl)phenyl]aniline], 100 to 1000 nM; that for `O=C1OCC(c2nnc(-c3ccccc3Nc3ccc(C(F)(F)F)cc3)o2)O1` (stereo not drawn) [Compound 29, 4-[5-[2-[4-(trifluoromethyl)anilino]phenyl]-1,3,4-oxadiazol-2-yl]-1,3-dioxolan-2-one], less than 100 nM. With `NC(CO)c1nnc(-c2ccccc2Nc2ccc(C(F)(F)F)cc2)o1` (stereo not drawn) [Compound 30, 2-amino-2-(5-(2-((4-(trifluoromethyl)phenyl)amino)phenyl)-1,3,4-oxadiazol-2-yl)ethanol], the IC50 lay in the range of 100 to 1000 nM. Regarding `[N-]=[N+]=NCc1nnc(-c2ccccc2Nc2ccc(C(F)(F)F)cc2)o1` [Compound 31, 2-[5-(azidomethyl)-1,3,4-oxadiazol-2-yl]-N-[4-(trifluoromethyl)phenyl]aniline], the IC50 lay within 100 to 1000 nM. Consider `CS(=O)(=O)N(CCO)c1nnc(-c2ccccc2Nc2ccc(C(F)(F)F)cc2)o1` [Compound 32, N-(2-hydroxyethyl)-N-(5-(2-((4-(trifluoromethyl)phenyl)amino)phenyl)-1,3,4-oxadiazol-2-yl)methanesulfonamide], for which the IC50 is 100 to 1000 nM. Still for that read-out and setting: in the case of `O=C1NCCN1c1nnc(-c2ccccc2Nc2ccc(C(F)(F)F)cc2)o1` [Compound 34, 1-(5-(2-((4-(trifluoromethyl)phenyl)amino)phenyl)-1,3,4-oxadiazol-2-yl)imidazolidin-2-one] it was 100 to 1000 nM; in that of `Cc1ocnc1-c1nnc(-c2ccccc2Nc2ccc(C(F)(F)F)cc2)o1` [Compound 35, 2-(5-(5-methyloxazol-4-yl)-1,3,4-oxadiazol-2-yl)-N-(4-(trifluoromethyl)phenyl) aniline], 100 to 1000 nM; in that of `FC(F)(F)c1ccc(Nc2ccccc2-c2nnc(-c3cocn3)o2)cc1` [Compound 36, 2-(5-(oxazol-4-yl)-1,3,4-oxadiazol-2-yl)-N-(4-(trifluoromethyl)phenyl)aniline], 100 to 1000 nM. `FC(F)(F)c1ccc(Nc2ccccc2-c2nnc(-c3cnco3)o2)cc1` [Compound 37, 2-(5-(oxazol-5-yl)-1,3,4-oxadiazol-2-yl)-N-(4-(trifluoromethyl)phenyl)aniline]: the IC50 fell in the range of 100 to 1000 nM. Turning to `Cc1oncc1-c1nnc(-c2ccccc2Nc2ccc(C(F)(F)F)cc2)o1` [Compound 40, 2-(5-(5-methylisoxazol-4-yl)-1,3,4-oxadiazol-2-yl)-N-(4-(trifluoromethyl)phenyl) aniline], the IC50 is 100 to 1000 nM. As for `CC(O)c1nnc(-c2ccccc2Nc2ccc(C(F)(F)F)cc2)o1` (stereo not drawn) [Compound 41, 1-(5-(2-((4-(trifluoromethyl)phenyl)amino)phenyl)-1,3,4-oxadiazol-2-yl)ethanol], the IC50 was less than 100 nM. Turning to `CC(C)(O)c1nnc(-c2ccccc2Nc2ccc(C(F)(F)F)cc2)o1` [Compound 42, 2-(5-(2-((4-(trifluoromethyl)phenyl)amino)phenyl)-1,3,4-oxadiazol-2-yl)propan-2-ol], the IC50 is less than 100 nM. Same read-out and setting: the result for `OC1(c2nnc(-c3ccccc3Nc3ccc(C(F)(F)F)cc3)o2)CC1` [Compound 44, 1-(5-(2-((4-(trifluoromethyl)phenyl)amino)phenyl)-1,3,4-oxadiazol-2-yl)cyclopropanol] reads less than 100 nM; that for `CC(C)(CO)c1nnc(-c2ccccc2Nc2ccc(C(F)(F)F)cc2)o1` [Compound 45, 2-methyl-2-(5-(2-((4-(trifluoromethyl)phenyl)amino)phenyl)-1,3,4-oxadiazol-2-yl)propan-1-ol], less than 100 nM; that for `Cc1ccc(S(=O)(=O)OC(c2nnc(-c3ccccc3Nc3ccc(C(F)(F)F)cc3)o2)C(F)(F)F)cc1` (stereo not drawn) [Compound 46, 2,2,2-trifluoro-1-(5-(2-((4-(trifluoromethyl)phenyl)amino)phenyl)-1,3,4-oxadiazol-2-yl)ethyl 4-methylbenzenesulfonate], 100 to 1000 nM. As for `OCC1(c2nnc(-c3ccccc3Nc3ccc(C(F)(F)F)cc3)o2)CC1` [Compound 47, (1-(5-(2-((4-(trifluoromethyl)phenyl)amino)phenyl)-1,3,4-oxadiazol-2-yl)cyclopropyl)methanol], the IC50 was less than 100 nM.

The assay is the same for the next values; noted with them: Homo sapiens, HEK-293T; […]; 24-hr incubation; top concentration 3 μM; read-out: Firefly Luciferase IC50.
In the case of `CS(=O)(=O)Nc1nnc(-c2ccccc2Nc2ccc(C(F)(F)F)cc2)o1` [Compound 38, N-(5-(2-((4-(trifluoromethyl)phenyl)amino)phenyl)-1,3,4-oxadiazol-2-yl)methanesulfonamide], the IC50 fell in the range of 100 to 1000 nM.

Broadly, the IC50 is the point on the concentration scale where inhibition reaches its midpoint.

For the origin of these results see patent US11661403B2, “Oxadiazole compounds” (Vivace Therapeutics, Inc., priority 2018, dated 2023).
